From patent US20200316122A1, “METHODS OF PRODUCING T CELL POPULATIONS USING P38 MAPK INHIBITORS” (The United States of America,as represented by the …, priority 2017, published 2020)

Columns and labels:
Mouse T cells [1] = test: cell proliferation by dilution of CSFE proliferation dye; assay type: cell-based; settings: hgp100 peptide or anti-CD3/CD28 stimulation, 4 days, 0.5 μM
Method: Mouse T cells were stimulated using either hgp100 peptide or anti-CD3/CD28 antibodies, and the numbers of cells were expanded for 4 days in vitro in the presence of 0.5 μM p38 inhibitor. Cell proliferation was measured.

Mouse T cells [2] = test: RNA extraction and qPCR gene expression; assay type: cell-based; settings: 5 days, 0.5 μM, qPCR
Method: Mouse T cells were stimulated and expanded for 5 days in vitro in the presence of 0.5 μM p38 inhibitor. RNA extraction and qPCR analysis were performed to determine differences in gene expression.

Mouse T cells [3] = test: SEAHORSE analysis of respiratory capacity; assay type: cell-based; settings: 5 days, 0.5 μM
Method: Mouse T cells were stimulated and expanded for 5 days in vitro in the presence of 0.5 μM p38 inhibitor. SEAHORSE analysis was performed to determine spare respiratory capacity of cells.

Human T cells = test: IFN-gamma production by human T cells expanded with p38i; assay type: cell-based; settings: human T cells expanded 20-25 days
Text: Human T cells were expanded for 20-25 days in the presence of […].

Mouse T cells [4] = test: mouse T cells stimulated and expanded 5 days with Birb796: gamma H2AX, cell counts, CD44/CD62L; assay type: cell-based; settings: mouse T cells expanded 5 days in vitro; with increases in the dosage of p38i
Method: Mouse T cells were stimulated and the numbers of cells were expanded for 5 days in vitro in the presence of the p38 inhibitor Birb796. The percentages of cells with high levels of gamma H2AX, the percentages of cell counts, and the expression of CD44 and CD62L were measured. As shown in FIGS. 4C-4F, with increases in the dosage of p38 inhibitor […]), the DNA damage in cells was reduced and the cell counts and percentage of CD62L+ cells were increased.

Mouse T cells [5] = test: apoptosis during expansion by Annexin; assay type: cell-based; settings: 4 days, 0.5 μM
Method: Mouse T cells were stimulated and the numbers of cells were expanded for 4 days in vitro in the presence of 0.5 μM p38 inhibitor. The levels of cells which underwent apoptosis were measured.

Mouse T cells [6] = test: cellular and mitochondrial ROS by FACS; assay type: cell-based; settings: 10 days, 0.5 μM
Method: Mouse T cells were stimulated and expanded for 10 days in vitro in the presence of 0.5 μM p38 inhibitor. Cellular and mitochondrial ROS levels were measured using FACS analysis.

[7] = test system: human healthy donor derived T cells and melanoma patient-derived T cells; test: human T cells expanded 20-25 days with p38i: CD8+CD62L+ cells; assay type: cell-based; settings: 0.5 uM p38i, vs vehicle
Method: The numbers of human healthy donor derived T cells and melanoma patient-derived T cells were expanded for 20-25 days in presence of 0.5 uM […]. The percentage of CD8+CD62L+ cells was measured.

Mouse T cells [8] = test: intracellular staining and FACS of phosphorylation of Akt and its substrates; assay type: cell-based; settings: 5 days, 0.5 μM
Method: Mouse T cells were stimulated and the numbers of cells were expanded for 5 days in vitro in presence of 0.5 μM p38 inhibitor. Intracellular staining and FACS analysis was performed to measure phosphorylation of Akt and its substrates in T cells.

Subcutaneous tumor = test: adoptive cell transfer of Pmel-1 T cells expanded ex vivo with p38 inhibitor into tumor-bearing mice; assay type: in vivo; settings: mice receiving Pmel-1 T cells expanded ex vivo 10 days with p38 inhibitor
Method: Subcutaneous tumor growth was measured in mice receiving adoptive cell transfer of Pmel-1 T cells which were expanded ex vivo for 10 days in the presence of p38 inhibitor. Tumor area (FIG. 10G) and overall survival (FIG. 10H) are shown. Significance for tumor growth kinetics were calculated by Wilcoxon rank-sum test. Survival significance was assessed by a log-rank Mantel-Cox test (n=5 mice per treatment group).

[9] = test system: CD19 antigen expressing NALM6 cells; test: specific cytolysis by anti-CD19 CAR human T cells expanded with p38i; assay type: cell-based; settings: anti-CD19 CAR T cells from 2 healthy donors, expanded 20-25 days, overnight coculture with NALM6
Method: Human T cells from 2 healthy donors were transduced with a retrovirus encoding an anti-CD19 CAR and the numbers of cells were expanded for 20-25 days in the presence of […]. Specific cytolysis was measured. […] T cells and NALM6 cells were cocultured overnight.

Mouse T cells [10] = test: cytokine production after brief anti-CD3/anti-CD28 stimulation; assay type: cell-based; settings: 10 days, 0.5 μM
Method: Mouse T cells were stimulated and expanded for 10 days in vitro in the presence of 0.5 μM p38 inhibitor. Cells were briefly stimulated with anti-CD3/anti-CD28 in the presence of GOLGI-STOP protein transport inhibitor and GOLGI-PLUG protein transport inhibitor to determine the cytokine production ability of cells. As shown in FIGS. 10A-10C, IFN-gamma and IL-2 production increased following […] treatment. TNF alpha production decreased following […] treatment.

Mouse T cells [11] = test: metabolome analysis; assay type: cell-based; settings: 5 days, 0.5 μM, vs vehicle
Method: Mouse T cells were stimulated and the numbers of cells were expanded for 5 days in vitro in the presence of 0.5 μM p38 inhibitor. […] FIG. 7B is a schematic illustrating glycolysis and the citric acid cycle.

## Cc1ccc(-n2nc(C(C)(C)C)cc2NC(=O)Nc2ccc(OCCN3CCOCC3)c3ccccc23)cc1 [BIRB 796, doramapimod]
Mouse T cells [1]
  cell proliferation (dilution of CSFE proliferation dye): did not affect cell proliferation
Mouse T cells [2]
  mRNA expression of Slc2a1: reduced
  mRNA expression of catalase: reduced
Mouse T cells [3]
  total oxygen consumption: increased
Human T cells
  ability to produce the effector cytokine IFN-gamma: enhanced ability
Mouse T cells [4]
  DNA damage in cells (percentage of cells with high levels of gamma H2AX): reduced
  cell counts: increased
  percentage of CD62L+ cells: increased
Mouse T cells [5]
  cell death during expansion (apoptotic cell marker Annexin): reduced cell death
Mouse T cells [6]
  mitochondrial ROS: reduced
  total ROS: reduced
[7]; healthy donor T cells
  percentage of CD8+CD62L+ cells: increased
[7]; melanoma patient T cells
  percentage of CD8+CD62L+ cells: increased
Mouse T cells [8]
  phosphorylation of Akt and its substrates: preserved memory-like characteristics of T cells independent of the Akt pathway
Subcutaneous tumor
  overall survival: promote survival
  tumor area: enhanced the ability of the transferred cells to reduce tumor area
[9]
  specific cytolysis: lysed in higher numbers
Mouse T cells [10]
  IFN-gamma production: increased
  IL-2 production: increased
  TNF alpha production: decreased
Mouse T cells [11]
  alpha-ketoglutarate production: reduced
  glucose production: reduced
  lactate production: reduced
  production of 9-HODE/13-HODE: reduced
  production of linoleate (18:2n6): reduced
  production of oxidized GSSG: reduced
  succinate production: reduced
